Among the data in patent US20150353495A1 (PORTOLA PHARMACEUTICALS, INC., priority 2010, published 2015) are IC50 values, retold here.

Structures are written as SMILES. A value given as a limit tells only on which side of the number the result lay.

Broadly, the IC50 is the concentration at which inhibition is half-maximal. A high value points to weaker potency.

What all share (type): biochemical
Experiment [1] concerns the target T1, JAK2 (Homo sapiens, UniProt O60674).
T1 construct: 5 μl of catalytic domain recombinant Kinase enzyme+Tyr peptide substrate (Invitrogen, CA); purchased Invitrogen
As to the kind of experiment: Z'-LYTE kinase assay JAK2. The gist of the method: (§1)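 Z′-LYTE FRET, Tyr6 peptide, recombinant catalytic domain + ATP, 1 h RT, 1% DMSO final, duplicates; protease development 1 h RT; fluorescence read.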

In experiment [2] the target is T2, JAK1 (Homo sapiens, UniProt P23458).
T2 construct: 5 μl of catalytic domain recombinant Kinase enzyme+Tyr peptide substrate (Invitrogen, CA); purchased Invitrogen
T2 sequence (P23458 875-1153 limits assumed): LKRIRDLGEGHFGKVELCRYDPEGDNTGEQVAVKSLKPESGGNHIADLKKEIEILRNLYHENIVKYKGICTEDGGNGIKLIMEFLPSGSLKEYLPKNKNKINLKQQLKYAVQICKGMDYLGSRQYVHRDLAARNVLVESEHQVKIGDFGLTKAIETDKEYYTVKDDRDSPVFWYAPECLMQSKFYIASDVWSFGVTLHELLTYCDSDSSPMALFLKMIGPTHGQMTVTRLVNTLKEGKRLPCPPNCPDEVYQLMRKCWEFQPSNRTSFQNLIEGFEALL
Put plainly: Z'-LYTE kinase assay JAK1. In outline:
as §1

Experiment [3] concerns the target T3, JAK3 (Homo sapiens, UniProt P52333).
T3 construct: 5 μl of catalytic domain recombinant Kinase enzyme+Tyr peptide substrate (Invitrogen, CA); purchased Invitrogen
As to the kind of experiment: Z'-LYTE kinase assay JAK3. The gist of the method:
as §1

T3 sequence (P52333 822-1111 limits assumed): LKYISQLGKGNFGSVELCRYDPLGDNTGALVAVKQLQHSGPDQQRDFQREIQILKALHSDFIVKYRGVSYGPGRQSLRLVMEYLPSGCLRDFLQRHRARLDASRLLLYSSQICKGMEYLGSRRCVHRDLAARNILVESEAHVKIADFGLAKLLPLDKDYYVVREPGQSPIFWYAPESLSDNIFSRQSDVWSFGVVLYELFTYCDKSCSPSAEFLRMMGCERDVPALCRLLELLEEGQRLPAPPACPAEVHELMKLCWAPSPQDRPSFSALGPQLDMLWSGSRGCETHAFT
T1 sequence (O60674 849-1124 limits assumed): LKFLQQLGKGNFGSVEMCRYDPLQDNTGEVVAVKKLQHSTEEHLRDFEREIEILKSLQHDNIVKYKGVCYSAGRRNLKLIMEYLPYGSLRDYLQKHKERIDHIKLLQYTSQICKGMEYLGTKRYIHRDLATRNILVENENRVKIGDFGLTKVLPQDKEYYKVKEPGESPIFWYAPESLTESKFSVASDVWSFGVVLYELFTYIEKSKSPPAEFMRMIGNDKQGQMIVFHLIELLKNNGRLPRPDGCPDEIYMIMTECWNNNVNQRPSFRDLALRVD

As for `CS(=O)(=O)N1CCC(Nc2cc(Nc3ccc(C4CCOCC4)cc3)ncc2C(N)=O)CC1` [Example 165, 4-(1-(methylsulfonyl)piperidin-4-ylamino)-6-(4-(tetrahydro-2H-pyran-4-yl)phenylamino)nicotinamide], the IC50 is above 1000 nM in experiment [1], 100 to 1000 nM in experiment [2] and 100 to 1000 nM in experiment [3].
On to `CCS(=O)(=O)N1CCC(Nc2cc(Nc3ccc(C4CCOCC4)cc3)ncc2C(N)=O)CC1` [Example 166, 4-(1-(ethylsulfonyl)piperidin-4-ylamino)-6-(4-(tetrahydro-2H-pyran-4-yl)phenylamino)nicotinamide], for which the values for the IC50 in experiment [1], in experiment [2] and in experiment [3] were 100 to 1000 nM, above 1000 nM and 100 to 1000 nM, respectively.
As to `C[C@H](Nc1cc(Nc2ccc(C3CCOCC3)cc2)ncc1C(N)=O)C(C)(C)C` [Example 167, (S)-4-(3,3-dimethylbutan-2-ylamino)-6-(4-(tetrahydro-2H-pyran-4-yl)phenylamino)nicotinamide], the IC50 in experiment [1] is above 1000 nM; in experiment [2], above 1000 nM; in experiment [3], 100 to 1000 nM.
`C[C@@H](Nc1cc(Nc2ccc(C3CCOCC3)cc2)ncc1C(N)=O)C(C)(C)C` [Example 168, (R)-4-(3,3-dimethylbutan-2-ylamino)-6-(4-(tetrahydro-2H-pyran-4-yl)phenylamino)nicotinamide]: the IC50 in experiment [1] was in the range of 10 to 100 nM; in experiment [2] it was 100 to 1000 nM; in experiment [3], 10 to 100 nM.
On to `CN(C)CC(C)(C)CNc1cc(Nc2ccc(C3CCOCC3)cc2)ncc1C(N)=O` [Example 171, 4-(3-(dimethylamino)-2,2-dimethylpropylamino)-6-(4-(tetrahydro-2H-pyran-4-yl)phenylamino)nicotinamide], for which the IC50 was above 1000 nM in experiment [1], above 1000 nM in experiment [2] and 100 to 1000 nM in experiment [3].
Take `NC(=O)c1cnc(Nc2ccc(C3CCOCC3)cc2)cc1NCc1nccs1` [Example 172, 6-(4-(tetrahydro-2H-pyran-4-yl)phenylamino)-4-(thiazol-2-ylmethylamino)nicotinamide]: the IC50 in experiment [1] was in the range of 100 to 1000 nM; in experiment [2] it was 100 to 1000 nM; in experiment [3], 10 to 100 nM.
On to `Cn1cc(CNc2cc(Nc3ccc(C4CCOCC4)cc3)ncc2C(N)=O)cn1` [Example 173, 4-((1-methyl-1H-pyrazol-4-yl)methylamino)-6-(4-(tetrahydro-2H-pyran-4-yl)phenylamino)nicotinamide], for which the IC50 in experiment [1] was above 1000 nM; in experiment [2] it was above 1000 nM; in experiment [3], 100 to 1000 nM.
`NC(=O)c1cnc(Nc2ccc(C3CCOCC3)cc2)cc1NCc1ccccn1` [Example 174, 4-(pyridin-2-ylmethylamino)-6-(4-(tetrahydro-2H-pyran-4-yl)phenylamino)nicotinamide]: the IC50 in experiment [1] is 100 to 1000 nM; in experiment [2], above 1000 nM; in experiment [3], 10 to 100 nM.
The like results for `NC(=O)c1cnc(Nc2ccc(C3CCOCC3)cc2)cc1NCc1ncccn1` [Example 175, 4-(pyrimidin-2-ylmethylamino)-6-(4-(tetrahydro-2H-pyran-4-yl)phenylamino)nicotinamide] were, in that order, above 1000 nM, above 1000 nM and 100 to 1000 nM.
Regarding `CCC(=O)N1CCC(c2ccc(Nc3cc(NCC4CCCC4)c(C(N)=O)cn3)cc2)CC1` [Example 176, 4-(cyclopentylmethylamino)-6-(4-(1-propionylpiperidin-4-yl)phenylamino)nicotinamide], the IC50 was in the range of 100 to 1000 nM in experiment [1], 100 to 1000 nM in experiment [2] and 10 to 100 nM in experiment [3].
With `CCC(=O)N1CCC(c2ccc(Nc3cc(NCc4nccs4)c(C(N)=O)cn3)cc2)CC1` [Example 177, 6-(4-(1-propionylpiperidin-4-yl)phenylamino)-4-(thiazol-2-ylmethylamino)nicotinamide], the IC50 in experiment [1] lay within 100 to 1000 nM; in experiment [2], 100 to 1000 nM; in experiment [3] it was 10 to 100 nM.
In the case of `CCC(=O)N1CCC(c2ccc(Nc3cc(NCc4cnn(C)c4)c(C(N)=O)cn3)cc2)CC1` [Example 178, 4-((1-methyl-1H-pyrazol-4-yl)methylamino)-6-(4-(1-propionylpiperidin-4-yl)phenylamino)nicotinamide], the IC50 in experiment [1] was above 1000 nM; in experiment [2], above 1000 nM; in experiment [3], 100 to 1000 nM.
With `CCC(=O)N1CCC(c2ccc(Nc3cc(NCc4ccccn4)c(C(N)=O)cn3)cc2)CC1` [Example 179, 6-(4-(1-propionylpiperidin-4-yl)phenylamino)-4-(pyridin-2-ylmethylamino)nicotinamide], the IC50 is 100 to 1000 nM in experiment [1], above 1000 nM in experiment [2] and 10 to 100 nM in experiment [3].
The like results for `CCC(=O)N1CCC(c2ccc(Nc3cc(NCc4ncccn4)c(C(N)=O)cn3)cc2)CC1` [Example 180, 6-(4-(1-propionylpiperidin-4-yl)phenylamino)-4-(pyrimidin-2-ylmethylamino)nicotinamide] were, in that order, above 1000 nM, above 1000 nM and 100 to 1000 nM.
Turning to `NC(=O)c1cnc(Nc2ccc(C3CCOCC3)cc2)cc1NCc1ccncn1` [Example 181, 4-(pyrimidin-4-ylmethylamino)-6-(4-(tetrahydro-2H-pyran-4-yl)phenylamino)nicotinamide], the IC50 in experiment [1], in experiment [2] and in experiment [3] was above 1000 nM in each case.
`Cn1c(CNc2cc(Nc3ccc(C4CCOCC4)cc3)ncc2C(N)=O)nc2ccccc21` [Example 182, 4-((1-methyl-1H-benzo[d]imidazol-2-yl)methylamino)-6-(4-(tetrahydro-2H-pyran-4-yl)phenylamino)nicotinamide]: the IC50 in experiment [1], in experiment [2] and in experiment [3] was above 1000 nM in each case.
Regarding `Cn1ccnc1CNc1cc(Nc2ccc(C3CCOCC3)cc2)ncc1C(N)=O` [Example 183, 4-((1-methyl-1H-imidazol-2-yl)methylamino)-6-(4-(tetrahydro-2H-pyran-4-yl)phenylamino)nicotinamide], the IC50 in experiment [1] lay in the range of 100 to 1000 nM; in experiment [2] it was 100 to 1000 nM; in experiment [3] it was 10 to 100 nM.
On to `C#CCNc1cc(Nc2ccc(C3CCOCC3)cc2)ncc1C(N)=O` [Example 184, 4-(prop-2-ynylamino)-6-(4-(tetrahydro-2H-pyran-4-yl)phenylamino)nicotinamide], for which the figures for the IC50 in experiment [1], in experiment [2] and in experiment [3] were above 1000 nM, above 1000 nM and 100 to 1000 nM, respectively.
On to `NC(=O)c1cnc(Nc2ccc(C3CCOCC3)cc2)cc1NCc1cccnc1` [Example 185, 4-(pyridin-3-ylmethylamino)-6-(4-(tetrahydro-2H-pyran-4-yl)phenylamino)nicotinamide], for which the IC50 in experiment [1] was in the range of 100 to 1000 nM; in experiment [2], 100 to 1000 nM; in experiment [3] it was 10 to 100 nM.
Regarding `CC(C)[C@H](C)Nc1cc(Nc2ccc(C3CCOCC3)cc2)ncc1C(N)=O` [Example 186, (S)-4-(3-methylbutan-2-ylamino)-6-(4-(tetrahydro-2H-pyran-4-yl)phenylamino)nicotinamide], the IC50 in experiment [1] fell in the range of 100 to 1000 nM; in experiment [2], 100 to 1000 nM; in experiment [3] it was 10 to 100 nM.
With `CCC(=O)N1CCC(c2ccc(Nc3cc(N[C@H](C)C(C)C)c(C(N)=O)cn3)cc2)CC1` [Example 189, (R)-4-(3-methylbutan-2-ylamino)-6-(4-(1-propionylpiperidin-4-yl)phenylamino)nicotinamide], the IC50 in experiment [1] lay within 10 to 100 nM; in experiment [2], 10 to 100 nM; in experiment [3], 1 to 10 nM.
As for `CCC(=O)N1CCC(c2ccc(Nc3cc(N[C@H](C)C(C)(C)C)c(C(N)=O)cn3)cc2)CC1` [Example 190, (R)-4-(3,3-dimethylbutan-2-ylamino)-6-(4-(1-propionylpiperidin-4-yl)phenylamino)nicotinamide], the results for the half-maximal inhibitory concentration (IC50) in experiment [1], in experiment [2] and in experiment [3] were 10 to 100 nM, 10 to 100 nM and 1 to 10 nM, respectively.
Regarding `CCC(=O)N1CCC(c2ccc(Nc3cc(N[C@H](C)C4CCCCC4)c(C(N)=O)cn3)cc2)CC1` [Example 191, (R)-4-(1-cyclohexylethylamino)-6-(4-(1-propionylpiperidin-4-yl)phenylamino)nicotinamide], the IC50 is above 1000 nM in experiment [1], above 1000 nM in experiment [2] and 100 to 1000 nM in experiment [3].
With `CCC(=O)N1CCC(c2ccc(Nc3cc(NCC4CCCCC4)c(C(N)=O)cn3)cc2)CC1` [Example 192, 4-(cyclohexylmethylamino)-6-(4-(1-propionylpiperidin-4-yl)phenylamino)nicotinamide], the IC50 in experiment [1] was 100 to 1000 nM; in experiment [2] it was above 1000 nM; in experiment [3], 10 to 100 nM.
The like results for `CCC(=O)N1CCC(c2ccc(Nc3cc(NCC4(c5ccccc5)CC4)c(C(N)=O)cn3)cc2)CC1` [Example 194, 4-((1-phenylcyclopropyl)methylamino)-6-(4-(1-propionylpiperidin-4-yl)phenylamino)nicotinamide] were, in that order, above 1000 nM, above 1000 nM and 100 to 1000 nM.
`NC(=O)c1cnc(Nc2ccc(C3CCOCC3)cc2)cc1NCc1cn(CCN2CCCCC2)nn1` [Example 201, 4-((1-(2-(piperidin-1-yl)ethyl)-1H-1,2,3-triazol-4-yl)methylamino)-6-(4-(tetrahydro-2H-pyran-4-yl)phenylamino)nicotinamide]: the IC50 in experiment [1], in experiment [2] and in experiment [3] was above 1000 nM throughout.
For the compound `CCC(=O)N1CCC(c2ccc(Nc3cc(N[C@H](C)C4CC4)c(C(N)=O)cn3)cc2)CC1` [Example 202, (R)-4-(1-cyclopropylethylamino)-6-(4-(1-propionylpiperidin-4-yl)phenylamino)nicotinamide], the results for the IC50 in experiment [1], in experiment [2] and in experiment [3] were 100 to 1000 nM, 100 to 1000 nM and 10 to 100 nM, respectively.
